Assay results taken from ChEMBL document CHEMBL1201861, “Genomics of Drug Sensitity in Cancer screening data, Wellcome Trust Sanger Institute”.

The compounds below were run on SW1990 (assay: cells). Details: Homo sapiens.
Type: functional, cell-based
Description: SANGER: Inhibition of human SW1990 cell growth in a cell viability assay.

**Q.** Which IC50 does the source give for `OC[C@H](Cc1ccccc1)Nc1nc(Oc2ccc3c(c2)CCC3)nc2c1ncn2Cc1ccc(-c2ccccc2)cc1` here?
**A.** > 10.2 µM

These compounds were tested on HuCCT-1 (assay: cells). Details: Homo sapiens.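 Note: growth inhibition of HuCCT-1 cells, read out by a cell viability assay.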
Type: functional, cell-based, HuCCT1
Description: SANGER: Inhibition of human HuCCT1 cell growth in a cell viability assay.

**Q.** With `OC[C@H](Cc1ccccc1)Nc1nc(Oc2ccc3c(c2)CCC3)nc2c1ncn2Cc1ccc(-c2ccccc2)cc1` as the compound, how does the IC50 read?
**A.** > 10.2 µM

Each compound was assayed on MKN-45 (assay: cells). Details: Homo sapiens.
Type: functional, cell-based
Description: SANGER: Inhibition of human MKN45 cell growth in a cell viability assay.

**Q.** How did the IC50 turn out when `OC[C@H](Cc1ccccc1)Nc1nc(Oc2ccc3c(c2)CCC3)nc2c1ncn2Cc1ccc(-c2ccccc2)cc1` was run?
**A.** > 10.2 µM

Each compound was assayed on NCI-H524 (assay: cells). Details: Homo sapiens, NCI-H524.
Type: functional, cell-based, Homo sapiens
Description: SANGER: Inhibition of human NCI-H524 cell growth in a cell viability assay.

**Q.** For `OC[C@H](Cc1ccccc1)Nc1nc(Oc2ccc3c(c2)CCC3)nc2c1ncn2Cc1ccc(-c2ccccc2)cc1`, which IC50 is on record?
**A.** > 10.2 µM

These compounds were tested on A204 (assay: cells). Details: Homo sapiens.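 Note: growth inhibition of human A204 cells, read out with a cell viability assay.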
Type: functional, cell-based
Description: SANGER: Inhibition of human A204 cell growth in a cell viability assay.

**Q.** For `OC[C@H](Cc1ccccc1)Nc1nc(Oc2ccc3c(c2)CCC3)nc2c1ncn2Cc1ccc(-c2ccccc2)cc1`, which IC50 is on record?
**A.** > 10.2 µM

What follows are compounds tested on SW1710 (assay: cells). Details: Homo sapiens.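 Note: growth inhibition of SW1710 cells, determined with a cell viability assay.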
Type: functional, cell-based
Description: SANGER: Inhibition of human SW1710 cell growth in a cell viability assay.

**Q.** For `OC[C@H](Cc1ccccc1)Nc1nc(Oc2ccc3c(c2)CCC3)nc2c1ncn2Cc1ccc(-c2ccccc2)cc1`, which IC50 is on record?
**A.** 1.43 µM

These compounds were tested on SW626 (assay: cells). Details: Homo sapiens.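 Note: growth inhibition of SW626 cells, measured with a cell viability assay.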
Type: functional, cell-based
Description: SANGER: Inhibition of human SW626 cell growth in a cell viability assay.

**Q.** With `OC[C@H](Cc1ccccc1)Nc1nc(Oc2ccc3c(c2)CCC3)nc2c1ncn2Cc1ccc(-c2ccccc2)cc1` as the compound, how does the IC50 read?
**A.** 8.3 µM

What follows are compounds tested on COR-L279 (assay: SANGER: Inhibition of human COR-L279 cell growth in a cell viability assay.). Details: Homo sapiens, COR-L279.
Type: functional, cell-based

**Q.** Which IC50 does the source give for `OC[C@H](Cc1ccccc1)Nc1nc(Oc2ccc3c(c2)CCC3)nc2c1ncn2Cc1ccc(-c2ccccc2)cc1` here?
**A.** > 10.2 µM

What follows are compounds tested on HCC1395 (assay: cells). Details: Homo sapiens.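 Note: growth inhibition of HCC1395 cells, read out by a cell viability assay.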
Type: functional, cell-based
Description: SANGER: Inhibition of human HCC1395 cell growth in a cell viability assay.

**Q.** How did the IC50 turn out when `OC[C@H](Cc1ccccc1)Nc1nc(Oc2ccc3c(c2)CCC3)nc2c1ncn2Cc1ccc(-c2ccccc2)cc1` was run?
**A.** > 10.2 µM

Each compound was assayed on CAL-39 (assay: cells). Details: Homo sapiens.
Type: functional, cell-based
Description: SANGER: Inhibition of human CAL-39 cell growth in a cell viability assay.

**Q.** With `OC[C@H](Cc1ccccc1)Nc1nc(Oc2ccc3c(c2)CCC3)nc2c1ncn2Cc1ccc(-c2ccccc2)cc1` as the compound, how does the IC50 read?
**A.** > 10.2 µM

The compounds below were run on CHP-126 (assay: cells). Details: Homo sapiens, CHP-126.
Type: functional, cell-based, Homo sapiens
Description: SANGER: Inhibition of human CHP-126 cell growth in a cell viability assay.

**Q.** `OC[C@H](Cc1ccccc1)Nc1nc(Oc2ccc3c(c2)CCC3)nc2c1ncn2Cc1ccc(-c2ccccc2)cc1` was tested. Which IC50 did it give?
**A.** > 10.2 µM

The compounds below were run on U-251 (assay: cells). Details: Homo sapiens.
Type: functional, cell-based
Description: SANGER: Inhibition of human U251 cell growth in a cell viability assay.

**Q.** Which IC50 does the source give for `OC[C@H](Cc1ccccc1)Nc1nc(Oc2ccc3c(c2)CCC3)nc2c1ncn2Cc1ccc(-c2ccccc2)cc1` here?
**A.** > 10.2 µM

What follows are compounds tested on NCI-H2141 (assay: cells). Details: Homo sapiens, NCI-H2141.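 Note: growth inhibition of human NCI-H2141 cells, read out with a cell viability assay.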
Type: functional, cell-based, Homo sapiens
Description: SANGER: Inhibition of human NCI-H2141 cell growth in a cell viability assay.

**Q.** How did the IC50 turn out when `OC[C@H](Cc1ccccc1)Nc1nc(Oc2ccc3c(c2)CCC3)nc2c1ncn2Cc1ccc(-c2ccccc2)cc1` was run?
**A.** > 10.2 µM

These compounds were tested on HCC1954 (assay: cells). Details: Homo sapiens.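 Note: growth inhibition of human HCC1954 cells, read out with a cell viability assay.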
Type: functional, cell-based
Description: SANGER: Inhibition of human HCC1954 cell growth in a cell viability assay.

**Q.** With `OC[C@H](Cc1ccccc1)Nc1nc(Oc2ccc3c(c2)CCC3)nc2c1ncn2Cc1ccc(-c2ccccc2)cc1` as the compound, how does the IC50 read?
**A.** 10 µM

What follows are compounds tested on MDA-MB-157 (assay: cells). Details: Homo sapiens.
Type: functional, cell-based
Description: SANGER: Inhibition of human MDA-MB-157 cell growth in a cell viability assay.

**Q.** Which IC50 does the source give for `OC[C@H](Cc1ccccc1)Nc1nc(Oc2ccc3c(c2)CCC3)nc2c1ncn2Cc1ccc(-c2ccccc2)cc1` here?
**A.** > 10.2 µM

These compounds were tested on GAMG (assay: cells). Details: Homo sapiens.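 Note: cell growth inhibition measured by a viability assay in the GAMG human cell line.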
Type: functional, cell-based
Description: SANGER: Inhibition of human GAMG cell growth in a cell viability assay.

**Q.** Which IC50 does the source give for `OC[C@H](Cc1ccccc1)Nc1nc(Oc2ccc3c(c2)CCC3)nc2c1ncn2Cc1ccc(-c2ccccc2)cc1` here?
**A.** > 10.2 µM

These compounds were tested on CAMA-1 (assay: cells). Details: Homo sapiens.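 Note: growth inhibition of CAMA-1 cells, read out with a cell viability assay.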
Type: functional, cell-based
Description: SANGER: Inhibition of human CAMA-1 cell growth in a cell viability assay.

**Q.** For `OC[C@H](Cc1ccccc1)Nc1nc(Oc2ccc3c(c2)CCC3)nc2c1ncn2Cc1ccc(-c2ccccc2)cc1`, which IC50 is on record?
**A.** 9.65 µM

These compounds were tested on LCLC-103H cell line (assay: cells). Details: Homo sapiens.
Type: functional, cell-based
Description: SANGER: Inhibition of human LCLC-103H cell growth in a cell viability assay.

**Q.** `OC[C@H](Cc1ccccc1)Nc1nc(Oc2ccc3c(c2)CCC3)nc2c1ncn2Cc1ccc(-c2ccccc2)cc1` was tested. Which IC50 did it give?
**A.** > 10.2 µM

The compounds below were run on FaDu (assay: cells). Details: Homo sapiens.
Type: functional, cell-based
Description: SANGER: Inhibition of human FADU cell growth in a cell viability assay.

**Q.** For `OC[C@H](Cc1ccccc1)Nc1nc(Oc2ccc3c(c2)CCC3)nc2c1ncn2Cc1ccc(-c2ccccc2)cc1`, which IC50 is on record?
**A.** > 10.2 µM

What follows are compounds tested on SCLC-21H (assay: cells). Details: Homo sapiens, SCLC-21H.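 Note: growth inhibition of cultured human SCLC-21H cells, read out with a cell viability assay.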
Type: functional, cell-based, Homo sapiens
Description: SANGER: Inhibition of human SCLC-21H cell growth in a cell viability assay.

**Q.** How did the IC50 turn out when `OC[C@H](Cc1ccccc1)Nc1nc(Oc2ccc3c(c2)CCC3)nc2c1ncn2Cc1ccc(-c2ccccc2)cc1` was run?
**A.** > 10.2 µM

These compounds were tested on NCI-H1882 (assay: cells). Details: Homo sapiens, NCI-H1882.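 Note: growth inhibition of the cell line, determined with a viability assay.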
Type: functional, cell-based, Homo sapiens
Description: SANGER: Inhibition of human NCI-H1882 cell growth in a cell viability assay.

**Q.** Which IC50 does the source give for `OC[C@H](Cc1ccccc1)Nc1nc(Oc2ccc3c(c2)CCC3)nc2c1ncn2Cc1ccc(-c2ccccc2)cc1` here?
**A.** > 10.2 µM

These compounds were tested on SNU-449 (assay: cells). Details: Homo sapiens.
Type: functional, cell-based
Description: SANGER: Inhibition of human SNU-449 cell growth in a cell viability assay.

**Q.** How did the IC50 turn out when `OC[C@H](Cc1ccccc1)Nc1nc(Oc2ccc3c(c2)CCC3)nc2c1ncn2Cc1ccc(-c2ccccc2)cc1` was run?
**A.** 1.09 µM

What follows are compounds tested on A-427 (assay: cells). Details: Homo sapiens.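 Note: growth inhibition of human A-427 cells, read out by a cell viability assay.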
Type: functional, cell-based
Description: SANGER: Inhibition of human A427 cell growth in a cell viability assay.

**Q.** With `OC[C@H](Cc1ccccc1)Nc1nc(Oc2ccc3c(c2)CCC3)nc2c1ncn2Cc1ccc(-c2ccccc2)cc1` as the compound, how does the IC50 read?
**A.** > 10.2 µM

These compounds were tested on NCI-H322M (assay: cells). Details: Homo sapiens, NCI-H322M.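 Note: cell viability assay measuring inhibition of growth of human NCI-H322M cells.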
Type: functional, cell-based, Homo sapiens
Description: SANGER: Inhibition of human NCI-H322M cell growth in a cell viability assay.

**Q.** `OC[C@H](Cc1ccccc1)Nc1nc(Oc2ccc3c(c2)CCC3)nc2c1ncn2Cc1ccc(-c2ccccc2)cc1` was tested. Which IC50 did it give?
**A.** > 10.2 µM

These compounds were tested on NCI-H2405 (assay: cells). Details: Homo sapiens.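 Note: growth inhibition of the human cell line, read out with a cell viability assay.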
Type: functional, cell-based
Description: SANGER: Inhibition of human NCI-H2405 cell growth in a cell viability assay.

**Q.** How did the IC50 turn out when `OC[C@H](Cc1ccccc1)Nc1nc(Oc2ccc3c(c2)CCC3)nc2c1ncn2Cc1ccc(-c2ccccc2)cc1` was run?
**A.** > 10.2 µM

What follows are compounds tested on NCI-H1437 (assay: cells). Details: Homo sapiens.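 Note: growth inhibition of human NCI-H1437 cells, read out by a cell viability assay.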
Type: functional, cell-based
Description: SANGER: Inhibition of human NCI-H1437 cell growth in a cell viability assay.

**Q.** With `OC[C@H](Cc1ccccc1)Nc1nc(Oc2ccc3c(c2)CCC3)nc2c1ncn2Cc1ccc(-c2ccccc2)cc1` as the compound, how does the IC50 read?
**A.** 6.89 µM

Each compound was assayed on RMG-I (assay: cells). Details: Homo sapiens.
Type: functional, cell-based
Description: SANGER: Inhibition of human RMG-I cell growth in a cell viability assay.

**Q.** How did the IC50 turn out when `OC[C@H](Cc1ccccc1)Nc1nc(Oc2ccc3c(c2)CCC3)nc2c1ncn2Cc1ccc(-c2ccccc2)cc1` was run?
**A.** > 10.2 µM

What follows are compounds tested on Daudi (assay: cells). Details: Homo sapiens, Daudi.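 Note: growth inhibition of Daudi cells, read out by a viability assay.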
Type: functional, cell-based, Homo sapiens
Description: SANGER: Inhibition of human Daudi cell growth in a cell viability assay.

**Q.** For `OC[C@H](Cc1ccccc1)Nc1nc(Oc2ccc3c(c2)CCC3)nc2c1ncn2Cc1ccc(-c2ccccc2)cc1`, which IC50 is on record?
**A.** > 10.2 µM

The compounds below were run on HuP-T3 (assay: cells). Details: Homo sapiens.
Type: functional, cell-based
Description: SANGER: Inhibition of human HuP-T3 cell growth in a cell viability assay.

**Q.** How did the IC50 turn out when `OC[C@H](Cc1ccccc1)Nc1nc(Oc2ccc3c(c2)CCC3)nc2c1ncn2Cc1ccc(-c2ccccc2)cc1` was run?
**A.** > 10.2 µM

Each compound was assayed on KYSE-270 (assay: cells). Details: Homo sapiens.
Type: functional, cell-based
Description: SANGER: Inhibition of human KYSE-270 cell growth in a cell viability assay.

**Q.** `OC[C@H](Cc1ccccc1)Nc1nc(Oc2ccc3c(c2)CCC3)nc2c1ncn2Cc1ccc(-c2ccccc2)cc1` was tested. Which IC50 did it give?
**A.** 1.76 µM
